The test system of the test is glycogen synthase. Briefly: Glycogen Synthase (GS) Assay. The conditions noted are these: for EC50: compound concentration needed to give 50% maximum activation; for GS SC200: compound concentration needed to stimulate 200% of the enzyme activity. It counts as biochemical. Here is the method: The following tests were carried out in order to determine the activity of the compounds of formula (I).
Twelve μL per well of substrate solution containing glycogen (4.32 mg/mL), 2.67 mM UDP-glucose, 21.6 mM phospho(enol)pyruvate and 2.7 mM NADH in 30 mM glycylglycine, pH 7.3 buffer was added into a polystyrene 384-well assay plate (BD Biosciences).
Compound solutions (8 μL/well) at various concentrations (0-300 μM) were added to the assay plate (columns 5-24). Compound solution contains 30 mM glycylglycine, pH 7.3, 40 mM KCl, 20 mM MgC12, 9.2% DMSO, with (columns 15-24) or without (columns 5-14) 20 mM glucose 6-phosphate.
Enzyme solution (12 μL/well) containing glycogen synthase (16.88 μg/mL), pyruvate kinase (0.27 mg/mL), lactate dehydrogenase (0.27 mg/mL) in 50 mM Tris-HCl, pH 8.0, 27 mM DTT and bovine serum albumin (BSA, 0.2 mg/mL) was added to the assay plate (columns 3-24). As a blank control, enzyme solution without glycogen synthase was added into the top half wells of columns 1-2. To the bottom half wells of columns 1-2 were added a known activator, glucose 6-phosphate (at final concentration 5 mM) in addition to the enzyme solution. The reaction mixture was incubated at room temperature. The assay plate was then read for absorbance at 340 nm on an Envision reader every 3 minutes up to a total of 15 minutes.
The enzyme activity (with or without compound) was calculated by the reaction rate and represented by the optical density change (SOD) per minute. Percent stimulation of glycogen synthase activity by a compound at various concentrations was calculated by the following formula: […]
where Rs is the reaction rate of the enzyme in the presence of compound and Rt is the reaction rate of the enzyme in the absence of compound.
SC200 is defined as the compound concentration that is needed to stimulate 200% of the enzyme activity. EC50 is defined as the compound concentration that is needed to give 50% maximum activation.
Compounds from Example 1 through Example 36 were assayed according to assay procedures described above and the results are listed in Table 1 below: […]

Structures are written as SMILES.

As for `COc1cc(F)c(F)cc1-c1ccc(OC[C@H]2CCCN(C(=O)CC(=O)O)C2)cc1` (single isomer, unassigned) [Example 3], the EC50 is 0.35 µM and the “GS SC200” value turned out to be 0.21 µM.

Turning to `COc1cc(F)c(F)cc1-c1ccc(OC[C@@H]2CCCN(C(=O)CC(=O)O)C2)cc1` (single isomer, unassigned) [Example 4], the response was half-maximal at 1.74 µM (EC50) and the “GS SC200” value came out at 1.18 µM.

On to `COc1cc(F)c(F)cc1-c1ccc(OC[C@@H]2CCCN(C(=O)N(CC(=O)O)Cc3ccccc3)C2)cc1` (single isomer, unassigned) [Example 23], for which the EC50 stood at 0.95 µM and the “GS SC200” value was determined as 0.23 µM.

`COc1cc(F)c(F)cc1-c1ccc(OC[C@H]2CCCN(C(=O)N(CC(=O)O)Cc3ccccc3)C2)cc1` (single isomer, unassigned) [Example 24]: a half-maximal response (EC50) required 4.76 µM and the “GS SC200” value is 1.99 µM.

As to `COc1cc(F)c(F)cc1-c1ccc(OCC2CCCN(C(=O)[C@H]3CCC[C@@H]3C(=O)O)C2)cc1` (stereo in doubt) [Example 7, 2-[3-(4′,5′-Difluoro-2′-methoxy-biphenyl-4-yloxymethyl)-piperidine-1-carbonyl]-cyclopentanecarboxylic acid], a half-maximal response (EC50) required 6.28 µM and the “GS SC200” value was determined as 1.55 µM.

In the case of `COc1cc(F)c(F)cc1-c1ccc(OCC2CCCN(C(=O)C3(C(=O)O)CC3)C2)cc1` (centres unmarked) [Example 1, 1-[3-(4′,5′-Difluoro-2′-methoxy-biphenyl-4-yloxymethyl)-piperidine-1-carbonyl]-cyclopropanecarboxylic acid], the EC50 amounted to 3.4 µM and the “GS SC200” value was 1.1 µM.

Regarding `COc1cc(F)c(F)cc1-c1ccc(OCC2CCCN(C(=O)CC(=O)O)C2)cc1` (centres unmarked) [Example 2, 3-[3-(4′,5′-Difluoro-2′-methoxy-biphenyl-4-yloxymethyl)-piperidin-1-yl]-3-oxo-propionic acid], the EC50 came to 0.51 µM and the “GS SC200” value came to 0.05 µM.

Consider `CONC(=O)CC(=O)N1CCCC(COc2ccc(-c3cc(F)c(F)cc3OC)cc2)C1` (centres unmarked) [Example 5, 3-[3-(4′,5′-Difluoro-2′-methoxy-biphenyl-4-yloxymethyl)-piperidin-1-yl]-N-methoxy-3-oxo-propionamide], for which a half-maximal effect (EC50) was put at 6.42 µM and the “GS SC200” value is 0.99 µM.

Consider `COc1cc(F)c(F)cc1-c1ccc(OCC2CCCN(C(=O)CC(=O)NO)C2)cc1` (centres unmarked) [Example 6, 3-[3-(4′,5′-Difluoro-2′-methoxy-biphenyl-4-yloxymethyl)-piperidin-1-yl]-N-hydroxy-3-oxo-propionamide], for which the EC50 is 5.54 µM and the “GS SC200” value came out at 2.37 µM.

`COc1cc(F)c(F)cc1-c1ccc(OCC2CCCN(C(=O)[C@H](C)CC(=O)O)C2)cc1` (stereo partly drawn) [Example 8, (R)(+)-4-[3-(4′,5′-Difluoro-2′-methoxy-biphenyl-4-yloxymethyl)-piperidin-1-yl]-3-methyl-4-oxo-butyric acid]: the EC50 is 8.03 µM and the “GS SC200” value was 2.35 µM.

Turning to `COc1cc(F)c(F)cc1-c1ccc(OCC2CCCN(C(N)=O)C2)cc1` (centres unmarked) [Example 9, 3-(4′,5′-Difluoro-2′-methoxy-biphenyl-4-yloxymethyl)-piperidine-1-carboxylic acid amide], the EC50 was found to be 6.26 µM and the “GS SC200” value was 2.22 µM.

With `COc1cc(F)c(F)cc1-c1ccc(OCC2CCCN(C(=O)[C@@H](CC(=O)O)NC(=O)OC(C)(C)C)C2)cc1` (stereo partly drawn) [Example 10, (R)-3-tert-Butoxycarbonylamino-4-[3-(4′,5′-difluoro-2′-methoxy-biphenyl-4-yloxymethyl)-piperidin-1-yl]-4-oxo-butyric acid], it took 5.71 µM to reach a half-maximal effect (EC50) and the “GS SC200” value worked out at 1.51 µM.

As for `COc1cc(F)c(F)cc1-c1ccc(OCC2CCCN(C(=O)[C@@H](CC(=O)O)NC(C)=O)C2)cc1` (stereo partly drawn) [Example 11, (R)-3-Acetylamino-4-[3-(4′,5′-difluoro-2′-methoxy-biphenyl-4-yloxymethyl)-piperidin-1-yl]-4-oxo-butyric acid], the midpoint of the response, the EC50, lay at 1.93 µM and the “GS SC200” value worked out at 0.42 µM.

Broadly, the EC50 is the midpoint of the concentration-response curve. The low end stands for a more potent agent, the high end for a less potent agent.
